Experiments:
Assay in all cases: split-luciferase competition binding
[1] = biological target: AURKC (human) (UniProt Q9UQB9); conditions: compound 10.0 µM
[2] = biological target: PRKX (human) (UniProt P51817); conditions: compound 10.0 µM
[3] = biological target: PDPK1 (human) (UniProt O15530); conditions: compound 10.0 µM
[4] = biological target: PRKCG (human) (UniProt P05129); conditions: compound 10.0 µM
[5] = biological target: PRKCD (human) (UniProt Q05655); conditions: compound 10.0 µM
[6] = biological target: AKT1 (human) (UniProt P31749); conditions: compound 10.0 µM
[7] = biological target: RPS6KA4 KD1 (human) (UniProt O75676); conditions: compound 10.0 µM
[8] = biological target: RPS6KA5 KD1 (human) (UniProt O75582); conditions: compound 10.0 µM
[9] = biological target: RPS6KA6 KD1 (human) (UniProt Q9UK32); conditions: compound 10.0 µM
[10] = biological target: SGK3 (human) (UniProt Q96BR1); conditions: compound 10.0 µM
[11] = biological target: AURKA (human) (UniProt O14965); conditions: compound 10.0 µM
[12] = biological target: AKT3 (human) (UniProt Q9Y243); conditions: compound 10.0 µM
[13] = biological target: AURKB (human) (UniProt Q96GD4); conditions: compound 10.0 µM
[14] = biological target: PRKCE (human) (UniProt Q02156); conditions: compound 10.0 µM
[15] = biological target: PRKCI (human) (UniProt P41743); conditions: compound 10.0 µM
[16] = system: PRKACA (mouse); conditions: compound 10.0 µM; accession and sequence are those of the human protein
[17] = biological target: STK32B (human) (UniProt Q9NY57); conditions: compound 10.0 µM
[18] = biological target: SGK2 (human) (UniProt Q9HBY8); conditions: compound 10.0 µM
[19] = biological target: AKT2 (human) (UniProt P31751); conditions: compound 10.0 µM
[20] = biological target: DMPK (human) (UniProt Q09013); conditions: compound 10.0 µM
[21] = biological target: PRKCH (human) (UniProt P24723); conditions: compound 10.0 µM
[22] = biological target: RPS6KA3 KD1 (human) (UniProt P51812); conditions: compound 10.0 µM
[23] = biological target: RPS6KA1 KD1 (human) (UniProt Q15418); conditions: compound 10.0 µM
[24] = biological target: PKN1 (human) (UniProt Q16512); conditions: compound 10.0 µM
[25] = biological target: PRKCQ (human) (UniProt Q04759); conditions: compound 10.0 µM
[26] = biological target: RPS6KA2 KD1 (human) (UniProt Q15349); conditions: compound 10.0 µM
[27] = biological target: PRKACB (human) (UniProt P22694); conditions: compound 10.0 µM

Sequence of SGK2 (human) (Q9HBY8 whole entry, looked up): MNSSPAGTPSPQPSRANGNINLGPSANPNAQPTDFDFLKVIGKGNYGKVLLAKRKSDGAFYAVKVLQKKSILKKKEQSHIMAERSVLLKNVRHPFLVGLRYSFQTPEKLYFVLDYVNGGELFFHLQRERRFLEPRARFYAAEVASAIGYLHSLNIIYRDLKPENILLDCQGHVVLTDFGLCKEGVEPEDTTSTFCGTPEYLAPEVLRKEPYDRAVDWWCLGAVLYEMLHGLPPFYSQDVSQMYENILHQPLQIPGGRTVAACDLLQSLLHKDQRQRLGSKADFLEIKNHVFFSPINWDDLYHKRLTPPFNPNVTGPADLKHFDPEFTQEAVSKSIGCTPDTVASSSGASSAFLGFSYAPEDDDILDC
Sequence of RPS6KA5 KD1 (human) (O75582 whole entry, looked up): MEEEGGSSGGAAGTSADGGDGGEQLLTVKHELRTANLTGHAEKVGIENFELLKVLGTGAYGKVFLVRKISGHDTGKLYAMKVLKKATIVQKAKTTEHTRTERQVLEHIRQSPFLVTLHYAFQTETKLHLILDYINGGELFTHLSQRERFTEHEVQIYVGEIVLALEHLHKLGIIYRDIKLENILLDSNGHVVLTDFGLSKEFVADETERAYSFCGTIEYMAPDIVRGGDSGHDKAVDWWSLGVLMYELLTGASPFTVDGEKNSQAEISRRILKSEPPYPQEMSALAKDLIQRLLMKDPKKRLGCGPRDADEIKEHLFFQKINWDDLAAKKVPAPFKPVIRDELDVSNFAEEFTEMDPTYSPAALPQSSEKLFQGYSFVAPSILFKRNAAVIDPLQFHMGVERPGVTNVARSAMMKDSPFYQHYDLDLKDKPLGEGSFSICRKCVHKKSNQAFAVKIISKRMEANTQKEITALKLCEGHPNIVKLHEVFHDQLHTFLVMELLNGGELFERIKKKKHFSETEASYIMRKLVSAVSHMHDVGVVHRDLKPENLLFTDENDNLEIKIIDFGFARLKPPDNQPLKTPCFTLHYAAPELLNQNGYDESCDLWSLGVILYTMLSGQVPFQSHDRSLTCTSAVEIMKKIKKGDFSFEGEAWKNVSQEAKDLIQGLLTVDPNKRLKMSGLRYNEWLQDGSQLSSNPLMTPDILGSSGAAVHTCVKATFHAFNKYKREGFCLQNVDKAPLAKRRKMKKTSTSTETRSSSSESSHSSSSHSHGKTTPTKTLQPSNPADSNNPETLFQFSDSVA
Sequence of PRKX (human) (P51817 whole entry, looked up): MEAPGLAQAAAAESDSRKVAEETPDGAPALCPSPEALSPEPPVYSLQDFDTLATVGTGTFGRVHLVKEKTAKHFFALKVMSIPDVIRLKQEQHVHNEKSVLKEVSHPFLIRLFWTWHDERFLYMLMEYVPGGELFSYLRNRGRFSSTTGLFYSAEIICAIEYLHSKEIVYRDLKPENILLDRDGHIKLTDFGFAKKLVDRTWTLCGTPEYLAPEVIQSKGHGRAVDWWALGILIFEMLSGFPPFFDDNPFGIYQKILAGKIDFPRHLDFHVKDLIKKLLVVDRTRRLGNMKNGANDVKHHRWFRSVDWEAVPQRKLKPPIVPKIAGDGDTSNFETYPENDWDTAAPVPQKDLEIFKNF
Sequence of RPS6KA2 KD1 (human) (Q15349 whole entry, looked up): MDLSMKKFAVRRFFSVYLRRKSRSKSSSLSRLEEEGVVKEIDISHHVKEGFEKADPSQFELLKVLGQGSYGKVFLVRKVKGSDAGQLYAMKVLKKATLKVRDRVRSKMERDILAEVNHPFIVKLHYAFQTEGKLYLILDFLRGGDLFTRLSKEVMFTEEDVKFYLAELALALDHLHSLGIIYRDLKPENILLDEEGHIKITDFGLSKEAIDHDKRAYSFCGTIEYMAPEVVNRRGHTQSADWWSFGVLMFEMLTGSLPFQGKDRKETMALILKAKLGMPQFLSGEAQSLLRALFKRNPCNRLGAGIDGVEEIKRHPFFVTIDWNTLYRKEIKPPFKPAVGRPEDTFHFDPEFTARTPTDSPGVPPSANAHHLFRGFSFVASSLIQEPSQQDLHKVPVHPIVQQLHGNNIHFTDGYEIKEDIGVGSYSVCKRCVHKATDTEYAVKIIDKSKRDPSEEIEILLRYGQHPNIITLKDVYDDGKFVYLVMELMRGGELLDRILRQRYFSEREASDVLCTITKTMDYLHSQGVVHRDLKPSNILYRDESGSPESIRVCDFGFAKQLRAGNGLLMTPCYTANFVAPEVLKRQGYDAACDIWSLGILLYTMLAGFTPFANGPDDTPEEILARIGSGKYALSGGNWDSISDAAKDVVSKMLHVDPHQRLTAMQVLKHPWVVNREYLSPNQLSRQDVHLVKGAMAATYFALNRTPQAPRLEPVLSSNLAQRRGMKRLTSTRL
Sequence of AURKB (human) (Q96GD4 whole entry, looked up): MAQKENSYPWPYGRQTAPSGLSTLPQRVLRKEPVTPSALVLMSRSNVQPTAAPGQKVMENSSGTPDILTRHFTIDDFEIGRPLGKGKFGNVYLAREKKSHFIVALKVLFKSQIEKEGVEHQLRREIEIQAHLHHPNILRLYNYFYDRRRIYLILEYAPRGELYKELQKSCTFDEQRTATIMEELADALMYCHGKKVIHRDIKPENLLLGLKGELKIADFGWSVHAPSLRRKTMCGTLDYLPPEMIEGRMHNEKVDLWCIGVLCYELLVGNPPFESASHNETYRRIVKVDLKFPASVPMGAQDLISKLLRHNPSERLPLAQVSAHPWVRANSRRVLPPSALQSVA
Sequence of RPS6KA3 KD1 (human) (P51812 whole entry, looked up): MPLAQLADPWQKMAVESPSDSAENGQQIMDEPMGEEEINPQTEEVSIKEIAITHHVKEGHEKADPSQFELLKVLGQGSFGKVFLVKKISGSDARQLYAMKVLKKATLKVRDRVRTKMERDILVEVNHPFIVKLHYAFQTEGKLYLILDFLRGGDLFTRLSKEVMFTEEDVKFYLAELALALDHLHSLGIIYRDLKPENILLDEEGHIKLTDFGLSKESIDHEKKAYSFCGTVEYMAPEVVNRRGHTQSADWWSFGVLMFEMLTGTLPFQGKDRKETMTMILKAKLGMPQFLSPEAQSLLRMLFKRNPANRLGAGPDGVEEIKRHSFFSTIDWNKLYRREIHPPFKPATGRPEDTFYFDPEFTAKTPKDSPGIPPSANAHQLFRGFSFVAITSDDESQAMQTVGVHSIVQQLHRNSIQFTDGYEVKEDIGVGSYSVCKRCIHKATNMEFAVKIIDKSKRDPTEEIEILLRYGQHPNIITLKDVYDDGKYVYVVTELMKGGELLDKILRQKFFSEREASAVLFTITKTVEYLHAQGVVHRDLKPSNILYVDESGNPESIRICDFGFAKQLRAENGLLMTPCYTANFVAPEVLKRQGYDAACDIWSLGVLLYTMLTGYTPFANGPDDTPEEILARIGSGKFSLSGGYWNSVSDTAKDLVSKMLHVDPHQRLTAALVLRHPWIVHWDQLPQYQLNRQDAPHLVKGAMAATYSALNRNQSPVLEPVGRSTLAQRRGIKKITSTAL
Sequence of PDPK1 (human) (O15530 whole entry, looked up): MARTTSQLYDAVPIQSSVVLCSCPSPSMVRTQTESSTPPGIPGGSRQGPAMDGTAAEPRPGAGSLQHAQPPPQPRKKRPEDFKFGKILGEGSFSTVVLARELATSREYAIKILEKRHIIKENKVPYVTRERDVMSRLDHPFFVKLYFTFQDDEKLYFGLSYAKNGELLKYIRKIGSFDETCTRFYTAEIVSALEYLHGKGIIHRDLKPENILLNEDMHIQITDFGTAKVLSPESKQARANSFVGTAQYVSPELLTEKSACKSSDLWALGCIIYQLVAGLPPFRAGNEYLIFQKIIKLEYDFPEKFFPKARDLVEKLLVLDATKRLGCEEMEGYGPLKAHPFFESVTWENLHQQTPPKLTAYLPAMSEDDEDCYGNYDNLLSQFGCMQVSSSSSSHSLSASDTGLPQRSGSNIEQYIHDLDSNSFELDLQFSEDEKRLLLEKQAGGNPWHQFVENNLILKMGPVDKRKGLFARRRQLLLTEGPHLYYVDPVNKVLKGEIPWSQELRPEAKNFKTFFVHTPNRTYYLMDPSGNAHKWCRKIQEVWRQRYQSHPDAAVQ
Sequence of AURKA (human) (O14965 whole entry, looked up): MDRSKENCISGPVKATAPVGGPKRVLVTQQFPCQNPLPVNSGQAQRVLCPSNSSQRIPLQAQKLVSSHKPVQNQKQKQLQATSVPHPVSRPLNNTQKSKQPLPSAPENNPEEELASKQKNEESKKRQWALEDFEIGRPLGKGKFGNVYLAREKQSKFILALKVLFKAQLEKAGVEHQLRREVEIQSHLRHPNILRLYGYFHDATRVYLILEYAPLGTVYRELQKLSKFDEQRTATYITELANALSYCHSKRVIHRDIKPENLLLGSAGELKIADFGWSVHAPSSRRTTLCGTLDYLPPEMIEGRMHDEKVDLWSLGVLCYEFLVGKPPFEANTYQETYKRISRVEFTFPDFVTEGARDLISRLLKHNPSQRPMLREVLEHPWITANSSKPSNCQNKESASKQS

Structure (SMILES)	inhibition [1]	inhibition [2]	inhibition [3]	inhibition [4]	inhibition [5]	inhibition [6]	inhibition [7]	inhibition [8]	inhibition [9]	inhibition [10]	inhibition [11]	inhibition [12]	inhibition [13]	inhibition [14]	inhibition [15]	inhibition [16]	inhibition [17]	inhibition [18]	inhibition [19]	inhibition [20]	also measured
Fc1ccc(Cl)cc1-c1nc(Nc2ccncc2)c2nccnc2n1	8%	12%	12%	10%	10%	39%	8%	24%	13%	14%	0%	35%	12%	27%	8%	21%	15%	22%	26%	18%	inhibition [21]: 43%; inhibition [22]: 12%; inhibition [23]: 18%; inhibition [24]: 0%; inhibition [25]: 51%; inhibition [26]: 5%; inhibition [27]: 19%
Cc1ccccc1C(=O)c1ccc(Nc2ccc(Br)cc2N)cc1Cl	0%	0%	0%	0%	0%	0%	0%	0%	0%	0%	0%	0%	0%	12%	0%	4%	0%	0%	0%	0%	inhibition [21]: 0%; inhibition [22]: 0%; inhibition [23]: 0%; inhibition [24]: 0%; inhibition [25]: 0%; inhibition [26]: 0%; inhibition [27]: 0%
O=C1c2ccccc2-c2n[nH]c3cccc1c23	0%	0%	0%	0%	0%	0%	0%	0%	0%	0%	0%	0%	6%	0%	0%	0%	0%	2%	0%	0%	inhibition [21]: 0%; inhibition [22]: 0%; inhibition [23]: 0%; inhibition [24]: 4%; inhibition [25]: 0%; inhibition [26]: 0%; inhibition [27]: 0%
Nc1ccc(-c2cccc3c(=O)cc(N4CCOCC4)oc23)cc1	14%	2%	0%	0%	0%	2%	3%	2%	0%	0%	2%	0%	7%	4%	0%	0%	0%	0%	0%	4%	inhibition [21]: 1%; inhibition [22]: 0%; inhibition [23]: 0%; inhibition [24]: 0%; inhibition [25]: 0%; inhibition [26]: 0%; inhibition [27]: 0%
O=c1cc(N2CCOCC2)oc2c1ccc1ccccc12	14%	0%	0%	3%	0%	0%	0%	1%	0%	0%	0%	0%	7%	6%	0%	0%	0%	0%	0%	0%	inhibition [21]: 0%; inhibition [22]: 0%; inhibition [23]: 0%; inhibition [24]: 0%; inhibition [25]: 0%; inhibition [26]: 0%; inhibition [27]: 0%
C/C(O)=C(\C#N)C(=O)Nc1cc(Br)ccc1Br	0%	0%	0%	0%	0%	0%	0%	0%	0%	0%	0%	0%	0%	0%	0%	7%	0%	0%	0%	0%	inhibition [21]: 0%; inhibition [22]: 0%; inhibition [23]: 0%; inhibition [24]: 0%; inhibition [25]: 0%; inhibition [26]: 0%; inhibition [27]: 0%
